{"source": "patent US9546144B2", "about": "“Bifunctional compounds” (University of Pittsburgh—of the Commonwealth System of …, priority 2011, dated 2017)", "key": {"32D cl 3 cells": {"system": "32D cl 3 cells", "assay": "irradiated 32D cl 3 cells, cell number and viability", "type": "cell-based", "conditions": "10 μM, 0-7 Gy, Day 3 or 5 after irradiation", "method": "FIG. 10. The data are from a screening experiment where 32D cl 3 cells were irradiated to doses of 0, 1, 3, 5, or 7 Gy and placed in T25 flasks. Either JP4-039 or MM350 were added at 10 μM and incubated in a CO2 incubator at 37° C. At Day 3 or 5 after irradiation, the cells were counted and the viability determined."}, "C57BL/6NTac mice": {"system": "C57BL/6NTac mice", "assay": "total body irradiation survival (hematopoietic syndrome)", "type": "in vivo, mouse", "conditions": "9.5 Gy", "method": "FIG. 11. MMS350 was dissolved in PBS and injected IP at 20 mg/kg. The mice were irradiated to 9.5 Gy total body irradiation and then injected at 4 or 24 hr after irradiation.\nFIG. 13. In vivo mitigation of total body irradiation by MMS350. MMS350 was dissolved in water at a concentration of 2 mg/ml. C57BL/6NTac mice (n=15/group) were irradiated to 9.5 Gy total body irradiation and injected intraperitoneally with 10 mg/kg of MMS350 at 4 or 24 hr. after irradiation. The mice were followed for the development of the hematopoietic syndrome at which time the mice were sacrificed.\nMMS350 was delivered by intraperitoneal injection to C57BL/6 mice (n=15/group) before or after the 9.5 Gy of total body irradiation (a dose which kills at least 50% of mice at 30 days) and indicative of death from the hematopoietic syndrome (bone marrow failure).\nMice were irradiated using JL Shepherd Mark 1 Model 68 irradiator to 9.25 total body irradiation dose or a Varian Linear Accelerator (Varian Medical Systems, Inc, Palo Alto, Calif.) to 20 Gy for pulmonary irradiation according to published methods (2, 10, 13).\nMice were injected intra-peritoneally with MMS350 or JP4-039 (GS-nitroxide) in 50% cremphor/50% ethanol according to published methods. For long-term administration of MMS350, the drug was administered in water bottles with bottles changed every 7 days. The dose of drug per bottle was 100 μM MMS350 starting on day 88. The estimated total amount consumed by each animal daily was 10.9 μg based on a mouse drinking 5 ml of water per day. Chimeric mice irradiated to the thoracic cavity were placed 30 days later on MMS350 in water containing 100 mM MMS350. On day 88 after thoracic irradiation of non-chimeric mice, mice were placed on […] MMS350 in drinking water."}}, "data": [{"compound": "CC1(C[S+]([O-])CC2(C)COC2)COC1", "note": "[compound 3, 3,3′-Sulfinylbis(methylene)bis(3-methyloxetane)]", "values": [{"measurement": "number of cells and viability after irradiation", "setting": "32D cl 3 cells", "value": "comparable to JP4-039"}, {"measurement": "survival after total body irradiation", "setting": "C57BL/6NTac mice; 10 mg/kg intraperitoneally 4 hr after irradiation, p=0.0092", "value": "significantly increased survival"}, {"measurement": "survival after total body irradiation", "setting": "C57BL/6NTac mice; 10 mg/kg intraperitoneally 24 hr after irradiation, p=0.0097", "value": "significantly increased survival"}, {"measurement": "protection against total body irradiation", "setting": "C57BL/6NTac mice; intraperitoneal injection before irradiation", "value": "protector when delivered prior to irradiation"}]}]}
